We go through two molecules from patent US7073512B2, “Adhesion prevention and an endoscopic insufflation system therefor” (Saturnus AG, priority 1997, dated 2006).

The subject of this experiment is adhesion formation. As to the kind of experiment: Adhesion formation after CO2 laser injury under CO2 or CO2/O2 pneumoperitoneum, scored at second-look laparoscopy after one week. It counts as in vivo, New Zealand white rabbits. Also on record: key to Mean total adhesion score: sum of extent (0-4), type (0-3), tenacity (0-3), inflammation (0-3). As for the experimental part:
All animals received two standard CO2 laser injuries. A non opposing lesion was inflicted in the retro-uterine space, i.e. on the posterior utero-vaginal wall, consisting of a 2 cm^2; vaporization of the superficial layers with CO2 laser. In addition, an apposing lesion was performed in the oviduct and pelvic side wall, consisting of a 2 cm^2 vaporization, on both sides. The time required to induce the lesions varied from 3 to 7 minutes.
Animals were assigned randomly on a daily base, to one of the following seven experimental groups. First and second groups were considered control groups. In group 1, using conventional CO2 pneumoperitoneum, the total duration of the procedure was restricted to 10 minutes.
Adhesions were evaluated by laparoscopy after one week. All second look laparoscopies were videotaped, and subsequently scored blindly by two investigators, taking into account extent (0 to 4 points), type (0 to 3 points), tenacity (0 to 3 points) and inflammatory reaction (0 to 3 points) at the injury and at de-novo siteds.
Sixty five New Zealand white rabbits weighing between 2150 and 3000 grams were operated with a standard 3 puncture laparoscopy. Standard surgical injuries were inflicted with CO2 laser (Sharplan 1060: Sharplan, Tel Aviv, Israel) with a spot diameter of 1 mm and a power setting of 10 watts in the continuous superpulse mode. […] The output of both insufflators was mixed in a mixing chamber, humidified and warmed. The insufflation pressure was 10 cm of water and the intra-abdominal flow rate 20 l/min. It is obvious that all means in contact with O2 are adapted therefor.

Regarding `O=O` [O2, oxygen], the “P of difference in total adhesion score versus control group with 100% CO2 (Group 2, 60′ CO2)” value runs as follows: (60′ 2.5% O2 (group 4)) “P = 0.05”; (60′ 5% O2 (group 5)) “P = 0.0005”; (60′ 10% O2 (group 6)) “P = 0.007”; (60′ 20% O2 (group 7)) “P = 0.005”. Further, the “P of decrease in total adhesion score with the addition of O2” value was determined as 0.0001 (de novo adhesions around the opposite tube), 0.0002 (non opposing lesion in the pouch of Douglas) and 0.0014 (opposing lesion in tube/side wall). For the same molecule, for the setting “from a final concentration of 5% oxygen onwards, together with CO2”, the “Adhesiogenic effect of CO2” value is “completely abolished”. The “Mean total adhesion score” value is given as 15.8±5.2 (group 3: CO2 with 1% O2, pneumoperitoneum 70 minutes); 5.3±3.8 (group 5: CO2 with 5% O2, pneumoperitoneum 70 minutes); 6.6±4.4 (group 6: CO2 with 10% O2, pneumoperitoneum 70 minutes); 6.3±2.5 (group 7: CO2 with 20% O2, pneumoperitoneum 70 minutes). Further, where the note is “increasing concentrations of oxygen in CO2 pneumoperitoneum”, the Amount of adhesions entry was “decreased progressively”.

Consider `O=C=O` [CO2, carbon dioxide, reference compound], for which, under “10′ CO2 (group 1)”, the “P of difference in total adhesion score versus control group with 100% CO2 (Group 2, 60′ CO2)” value is on record as “P = 0.0002”. The “Mean total adhesion score” value is, setting by setting: (group 1: pure CO2 pneumoperitoneum, procedure restricted to 10 minutes) 4.5±3.7; (group 2: pure CO2 pneumoperitoneum maintained 70 minutes) 17.5±6.7. The “Increase of adhesion scores, 60 min exposure in comparison with 10 min exposure” value (pure CO2, 60 min vs 10 min) came to 4 fold.
